{"source": "patent US6414030B1", "about": "“Use of benzenesulfonyl(thio)ureas for the treatment and prophylaxis of dysfunctions of the autonomous nervous system and use of benzenesulfonyl(thio)ureas in combination with beta-receptors blockers” (Aventis Pharma Deutschland, GmbH, priority 1998, dated 2002)", "key": {"[1]": {"test_system": "chloroform-induced ventricular fibrillation in the mouse", "assay": "Chloroform-induced ventricular fibrillation in the mouse: combinations of compounds of the formula I with beta-receptor blockers", "assay_type": "in vivo", "settings": "n = 30, untreated control 100%", "method": "(§1) The substances were investigated using the model of chloroform-induced ventricular fibrillation in the mouse (see J. W. Lawson, Antiarrhythmic activity of some isoquinoline derivatives determined by a rapid screening procedure in the mouse; J. Pharmacol. Exp. Ther. 1968, 160, 22-31). The test substance was dissolved in a mixture of dimethyl sulfoxide (DMSO) and 10% strength sodium bicarbonate solution and administered intraperitoneally (i.p.). After 30 minutes, the mouse was anesthetized with chloroform in a beaker. As soon as, in deep anesthesia, respiratory arrest had occurred (toxic anesthesia stage), the thorax of the animal was opened using a pair of scissors and the heartbeat was inspected visually. Here, it is possible to determine on first sight whether the heart is beating, fibrillating or arrested. The respiratory arrest triggered by chloroform leads, via absolute anoxia (lack of oxygen) in combination with a direct stimulating effect of chloroform on the sympathetic nervous system, to a potent stimulation of the sympathicus, which in turn in combination with the energy deficit in the heart caused by lack of oxygen results in fatal arrhythmia, i.e. ventricular fibrillation. This toxic chloroform anesthesia led to ventricular fibrillation in 100% of the untreated mice (control).\nThe active compounds were administered i.v. (intravenously) or i.p. (intraperitoneally). In one experiment, 10 mg/kg of 1-[[5-[2-(5-chloro-2-methoxybenzamido)ethyl]-2-methoxyphenyl]sulfonyl]-3-methylthiourea sodium salt (see Example 4; dissolved in DMSO/10% strength sodium bicarbonate solution) were combined with 0.3 mg/kg of propanolol (dissolved in distilled water), a standard beta-blocker. […] The proportion of fibrillation could be lowered further than with the individual substances, in a statistically significant manner. For comparison, a 10 times higher dose of 3 mg/kg of propanolol was used. […] In another experiment, 3 mg/kg of 1-[[5-[2-(5-tert-butyl-2-methoxybenzamido)ethyl]-2-methoxyphenyl]sulfonyl]-3-methylthiourea (Example 1) and 3 mg/kg of atenolol were combined in an analogous manner."}, "[2]": {"test_system": "chloroform-induced ventricular fibrillation in the mouse", "assay": "Chloroform-induced ventricular fibrillation in the mouse (effect on vagal dysfunction), without and with atropine", "assay_type": "in vivo", "settings": "n = 10, untreated control 100%; for Proportion of fibrillation (in %) with atropine (1 mg/kg i.v.): plus atropine 1 mg/kg i.v.", "method": "as §1, with “The test substance was dissolved in a mixture of dimethyl sulfoxide (DMSO) and 10% strength sodium bicarbonate solution and administered intraperitoneally (i.p.).” left out"}, "[3]": {"settings": "3 mg/kg i.p., chloroform anesthesia after 30 minutes"}}, "note": "Marks after values point to notes of the source that are not given here.", "data": [{"molecule": "CC(C)NCC(O)COc1ccc(CC(N)=O)cc1", "note": "(stereo not drawn) [atenolol]", "values": [{"measurement": "Proportion of fibrillation in %", "setting": "[1]; single substance 3 mg/kg i.v.", "result": 48, "unit": "%*"}]}, {"molecule": "CNC(=S)NS(=O)(=O)c1cc(CCNC(=O)c2cc(C(C)C)ccc2OC)ccc1OC", "note": "[Example 3, 1-[[5-[2-(5-lsopropyl-2-methoxybenzamido)ethyl]-2-methoxyphenyl]sulfonyl]-3-methylthiourea]", "values": [{"measurement": "Proportion of fibrillation (in %) without atropine", "setting": "[2]; [3]", "result": 60, "unit": "%#"}]}, {"molecule": "C[N+](C)(C)CCOC(N)=O", "note": "[carbachol, reference compound]", "values": [{"measurement": "Proportion of fibrillation (in %) without atropine", "setting": "[2]; 60 μg/kg i.v.", "result": 60, "unit": "%#"}, {"measurement": "Proportion of fibrillation (in %) with atropine (1 mg/kg i.v.)", "setting": "[2]; 60 μg/kg i.v.", "result": 100, "unit": "%*"}]}, {"molecule": "CNC(=O)NS(=O)(=O)c1cc(CCNC(=O)c2cc(C(C)(C)C)ccc2OC)ccc1OC", "note": "[Example 2, 1-[[5-[2-(5-tert-Butyl-2-methoxybenzamido)ethyl]-2-methoxyphenyl]sulfonyl]-3-methylurea]", "values": [{"measurement": "Proportion of fibrillation (in %) without atropine", "setting": "[2]; 1 mg/kg i.p.", "result": 60, "unit": "%#"}, {"measurement": "Proportion of fibrillation (in %) with atropine (1 mg/kg i.v.)", "setting": "[2]; 1 mg/kg i.p.", "result": 100, "unit": "%*"}]}, {"molecule": "CNC(=S)NS(=O)(=O)c1cc(CCNC(=O)c2cc(C(C)(C)C)ccc2OC)ccc1OC", "note": "[Example 1, 1-[[5-[2-(5-tert-Butyl-2-methoxybenzamido)ethyl]-2-methoxyphenyl]sulfonyl]-3-methylthiourea]", "values": [{"measurement": "Proportion of fibrillation (in %) without atropine", "setting": "[2]; [3]", "result": 30, "unit": "%#"}, {"measurement": "Proportion of fibrillation (in %) with atropine (1 mg/kg i.v.)", "setting": "[2]; 3 mg/kg i.p.", "result": 90, "unit": "%*"}, {"measurement": "Proportion of fibrillation in %", "setting": "[1]; single substance 3 mg/kg i.p.", "result": 53, "unit": "%*"}]}, {"molecule": "CC(C)NCC(O)COc1cccc2ccccc12", "note": "(stereo not drawn) [propranolol]", "values": [{"measurement": "Proportion of fibrillation in %", "setting": "[1]; single substance 0.3 mg/kg i.v.", "result": 37, "unit": "%*"}, {"measurement": "Proportion of fibrillation in %", "setting": "[1]; single substance 3 mg/kg i.v.", "result": 17, "unit": "%*"}]}, {"molecule": "CNC(=S)NS(=O)(=O)c1cc(CCNC(=O)c2cc(Cl)ccc2OC)ccc1OCCOC", "note": "[Example 5, 1-[[5-[2-(5-Chloro-2-methoxybenzamido)ethyl]-2-(2-methoxyethoxy)phenyl]sulfonyl]-3-methylthiourea]", "values": [{"measurement": "Proportion of fibrillation (in %) without atropine", "setting": "[2]; 10 mg/kg i.p.", "result": 60, "unit": "%#"}, {"measurement": "Proportion of fibrillation (in %) with atropine (1 mg/kg i.v.)", "setting": "[2]; 10 mg/kg i.p.", "result": 100, "unit": "%*"}]}, {"molecule": "CNC(=S)NS(=O)(=O)c1cc(CCNC(=O)c2cc(Cl)ccc2OC)ccc1OC.[Na]", "note": "[1-[[5-[2-(5-chloro-2-methoxybenzamido)ethyl]-2-methoxyphenyl]sulfonyl]-3-methylthiourea sodium salt]", "values": [{"measurement": "Proportion of fibrillation (in %) without atropine", "setting": "[2]; 10 mg/kg i.p.", "result": 50, "unit": "%#"}, {"measurement": "Proportion of fibrillation (in %) with atropine (1 mg/kg i.v.)", "setting": "[2]; 10 mg/kg i.p.", "result": 90, "unit": "%*"}, {"measurement": "Proportion of fibrillation in %", "setting": "[1]; single substance 10 mg/kg i.v.", "result": 50, "unit": "%*"}]}, {"molecule": "CNC(=O)Oc1ccc2c(c1)[C@]1(C)CCN(C)[C@@H]1N2C", "note": "[physostigmine, reference compound]", "values": [{"measurement": "Proportion of fibrillation (in %) without atropine", "setting": "[2]; 1 mg/kg s.c.", "result": 70, "unit": "%#"}, {"measurement": "Proportion of fibrillation (in %) with atropine (1 mg/kg i.v.)", "setting": "[2]; 1 mg/kg s.c.", "result": 100, "unit": "%*"}]}]}
